Assay results as given in PubChem BioAssay (NCI).
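Compound exposure: 48 hours, 5 concentrations, 96-well plates. The concentration for full growth arrest is given as TGI.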

Columns and labels:
Assay in all cases: NCI anticancer screen, dose series, 48 h
BT-549 breast = tested on: BT-549 breast
T-47D breast = tested on: T-47D breast
SK-MEL-28 melanoma = tested on: SK-MEL-28 melanoma
HT29 colon = tested on: HT29 colon
SK-MEL-2 melanoma = tested on: SK-MEL-2 melanoma
PC-3 prostate = tested on: PC-3 prostate
SN12C renal = tested on: SN12C renal
HCC-2998 colon = tested on: HCC-2998 colon
EKVX NSCLC = tested on: EKVX NSCLC
HOP-62 NSCLC = tested on: HOP-62 NSCLC
NCI-H522 lung = tested on: NCI-H522 lung

Structure (SMILES)	TGI (BT-549 breast)	TGI (T-47D breast)	TGI (SK-MEL-28 melanoma)	TGI (HT29 colon)	TGI (SK-MEL-2 melanoma)	TGI (PC-3 prostate)	TGI (SN12C renal)	TGI (HCC-2998 colon)	TGI (EKVX NSCLC)	TGI (HOP-62 NSCLC)	TGI (NCI-H522 lung)
OC1(c2ccc(Cl)cc2)c2c(c3ccccc3c3ccccc23)C2=NCCN21 (configuration not stated)	33.7 µM	> 100 µM	34.9 µM	35.5 µM	36.7 µM	49.6 µM	44.7 µM	6.85 µM	35.4 µM	24.2 µM	
COc1ccc(N2N=NN(C(C)C)/C2=C(/Cl)c2nnnn2-c2ccc(OC)cc2)cc1	29.7 µM	15.3 µM	29.7 µM	24.4 µM	29.6 µM	28.3 µM	28.2 µM	34.4 µM	36.1 µM	37.1 µM	5.48 µM
Cn1c(COC(=O)NC2CCCCC2)c(COC(=O)NC2CCCCC2)c2ccc3cc(C=O)ccc3c21	> 100 µM	> 100 µM		> 100 µM	> 100 µM	> 100 µM	> 100 µM	> 100 µM	> 100 µM		
Nc1ccccc1OCCCOc1ccccc1N	> 100 µM	> 100 µM	> 100 µM	> 100 µM	> 100 µM	> 100 µM	> 100 µM	> 100 µM	> 100 µM	> 100 µM	> 100 µM
CN(C)CC1CCCc2ccccc2C1=O (configuration not stated)	9.8 µM	17 µM	13 µM	3.38 µM	4 µM	3 µM	24.2 µM	12 µM	3.4 µM	33.7 µM	
O=C(CC(c1ccccc1)C(C(=O)c1ccncc1)C(CC(=O)c1ccncc1)c1ccccc1)c1ccncc1 (configuration not stated)	57.3 µM	> 100 µM	> 100 µM	> 100 µM	> 100 µM	> 100 µM		> 100 µM	> 100 µM	> 100 µM	
O=C(/C=C/c1ccccc1)Oc1cccc(Br)c1	> 100 µM	> 100 µM	> 100 µM	> 100 µM	> 100 µM	> 100 µM	> 100 µM	> 100 µM	> 100 µM	> 100 µM	29.2 µM
COc1cc(/C=C/C(=N\NC(=S)NN)c2sc(NNC(C)=O)nc2C)ccc1O	> 100 µM	> 100 µM	> 100 µM	> 100 µM	> 100 µM	> 100 µM	> 100 µM	> 100 µM	> 100 µM	> 100 µM	> 100 µM
CCN(CC)c1ccc2cc(C(N)=O)c(=Nc3ccc(F)cc3)oc2c1	> 100 µM	> 100 µM	> 100 µM	> 100 µM	> 100 µM	> 100 µM	> 100 µM	> 100 µM	> 100 µM	> 100 µM	> 100 µM
O=C1c2cccnc2-c2nccc3c2c1nc1ccc(Br)cc13	0.176 µM	0.552 µM	0.169 µM	0.723 µM	0.306 µM	0.234 µM	0.205 µM	0.308 µM	0.311 µM	0.194 µM	0.128 µM
O=C1O[C@H]2C3C4CCC(C4[C@@H]2I)[C@H]13 (some centres not stated)	> 100 µM	> 100 µM	> 100 µM	> 100 µM	> 100 µM	> 100 µM	> 100 µM	> 100 µM	> 100 µM	> 100 µM	> 100 µM
CC1(C)CN=CC(C)(OCc2ccccc2)C(=O)NC(C)(C)CN=CC(C)(OCc2ccccc2)C(=O)N1 (configuration not stated)	> 10 µM	> 10 µM	> 10 µM	> 10 µM	> 10 µM	> 10 µM	> 10 µM	> 10 µM	> 10 µM	> 10 µM	
CCC(=O)N1C(=O)C(CC)(CC)C(=O)N1C(=O)CC	> 100 µM	> 100 µM	> 100 µM	> 100 µM	> 100 µM	> 100 µM	> 100 µM	> 100 µM	> 100 µM	> 100 µM	> 100 µM
CCN(CC)C1Oc2cc3c(cc2C(c2cccc(OC)c2O)C1C)OCO3 (configuration not stated)	> 44.9 µM	> 86 µM	42.2 µM	27.5 µM	27.4 µM	> 35.8 µM	16.4 µM	> 46.7 µM	62.3 µM	21.3 µM	7.3 µM
COc1ccc(C2=NNC(c3cc4cc(Br)ccc4nc3Cl)C2)cc1 (configuration not stated)	> 25 µM	> 25 µM	> 25 µM	> 25 µM	> 25 µM	> 25 µM	> 25 µM	> 25 µM	> 25 µM		
O=C(NNS(=O)(=O)c1ccccc1)c1csc(NC(=S)NC2CCCCC2)n1	45.3 µM	52.9 µM		> 100 µM	41.7 µM	> 100 µM	39.3 µM	> 100 µM	> 100 µM	> 100 µM	82.7 µM
COc1ccc(N2C(=O)C3c4[nH]c5ccccc5c4C4c5ccccc5CC4C3C2=O)cc1 (configuration not stated)	> 100 µM	> 100 µM	> 100 µM	> 100 µM	> 100 µM	> 100 µM	> 100 µM	> 100 µM	> 100 µM	> 100 µM	> 100 µM
CC(=O)O[C@H]1C[C@](C)(O)[C@@]23CC([C@@H](OC(=O)C(C)(C)O)[C@@H](OC(C)=O)C2(COC(=O)c2ccccc2)[C@H]1OC(C)=O)C(C)(C)O3 (some centres not stated)	> 100 µM	> 100 µM	> 100 µM	> 100 µM	> 100 µM	> 100 µM	> 100 µM	> 100 µM	> 100 µM	> 100 µM	> 100 µM

Structure (SMILES)	TGI (BT-549 breast)	TGI (T-47D breast)	TGI (SK-MEL-28 melanoma)	TGI (HT29 colon)	TGI (SK-MEL-2 melanoma)	TGI (PC-3 prostate)	TGI (SN12C renal)	TGI (HCC-2998 colon)	TGI (EKVX NSCLC)	TGI (HOP-62 NSCLC)	TGI (NCI-H522 lung)
CC(=O)OCC1OC(n2c(N)c(C#N)c(-c3cccc(Cl)c3)c(C#N)c2=S)C(OC(C)=O)C(OC(C)=O)C1OC(C)=O (configuration not stated)	70.8 µM	59 µM	> 100 µM	84.5 µM	45.2 µM	> 100 µM	> 100 µM	22.7 µM	> 100 µM	> 100 µM	
COc1ccc(Cn2c3ccc([N+](=O)[O-])cc3c(=O)n2Cc2ccccn2)cc1	> 100 µM	77.4 µM	> 100 µM	> 100 µM	> 100 µM	> 100 µM	> 100 µM	> 100 µM	> 100 µM	> 100 µM	> 100 µM
COC12C=CC(CC1)C(C)(C)C2OS(C)(=O)=O (configuration not stated)	> 100 µM	> 100 µM	> 100 µM	> 100 µM	> 100 µM	> 100 µM	> 100 µM	> 100 µM	> 100 µM	> 100 µM	> 100 µM
CC(C)=CCC[C@@H](C)C1=CC(=O)C(C)=C(O)C1=O	18.1 µM	6.35 µM	31 µM	22.5 µM	26.3 µM	18.2 µM	22.6 µM	32.9 µM	13.9 µM	25.7 µM	2.78 µM
O=c1c2cc(I)ccc2nc(SCc2nnco2)n1Cc1ccccc1	> 100 µM	> 100 µM	> 100 µM	> 100 µM	> 100 µM	> 100 µM	> 100 µM	> 100 µM	> 100 µM	> 100 µM	> 100 µM
O=C1CC(C(COCc2ccccc2)OCc2ccccc2)CC(=O)N1 (configuration not stated)	> 100 µM	> 100 µM	> 100 µM	> 100 µM		> 100 µM	> 100 µM	> 100 µM	> 100 µM	> 100 µM	> 100 µM
CCn1c(=O)c2c3ccc(OC)cc3[nH]c2c2ccc(OC)cc21	> 100 µM	> 100 µM	> 100 µM	> 100 µM		> 100 µM	> 100 µM	62.7 µM	> 100 µM	> 100 µM	> 100 µM
C[C@]12CC[C@H](O)CC1=CC[C@@H]1[C@@H]2CC[C@]2(C)C(=O)/C(=C/c3ccc([N+](=O)[O-])cc3)C[C@@H]12	57.5 µM	61.6 µM	74.7 µM	> 100 µM	36.5 µM	31 µM	33 µM	> 100 µM	24.9 µM	17 µM	30.6 µM
CCOC(=O)C(NC(=O)CC)(Nc1ccc(S(=O)(=O)Nc2ccc(OC)nn2)cc1)C(F)(F)F (configuration not stated)	> 100 µM	> 100 µM	> 100 µM	> 100 µM	> 100 µM	> 100 µM	> 100 µM	> 100 µM	> 100 µM	> 100 µM	> 100 µM
O=C(N[C@H]1CCC[C@H]1C(=O)Nc1ccc(C(F)(F)F)cc1)OCc1ccccc1	> 100 µM	> 100 µM	> 100 µM	> 100 µM	> 100 µM	> 100 µM	> 100 µM	> 100 µM	> 100 µM	> 100 µM	> 100 µM
CC(=O)OCC1OC(SC2=NC(=O)/C(=C/c3ccccc3)S2)C(OC(C)=O)C(OC(C)=O)C1OC(C)=O (configuration not stated)	78.9 µM	> 100 µM	> 100 µM	> 100 µM	> 100 µM	> 100 µM	> 100 µM	> 100 µM	70.4 µM	> 100 µM	80.6 µM
COc1cc([C@@H]2c3cc4c(cc3[C@@H](c3c(O)cc(O)c5c3O[C@H](c3ccc(O)c(O)c3)[C@H](OC(=O)c3cc(O)c(O)c(O)c3)C5)[C@H]3COC(=O)[C@H]23)OCO4)cc(OC)c1O	> 100 µM	> 100 µM	> 100 µM	65.3 µM	> 100 µM	> 100 µM	> 100 µM	92.3 µM	> 100 µM	> 100 µM	> 100 µM
COc1cc(C2c3cc(OC)c(OC)c(O)c3C(=O)C3CCC(=O)N32)cc(OC)c1OC (configuration not stated)	91.3 µM	> 100 µM	> 100 µM	> 100 µM	> 100 µM	> 100 µM	> 100 µM	> 100 µM	> 100 µM	> 100 µM	77.6 µM
C[C@@]12C[C@@H](c3ccccc3O1)N1Cc3ccccc3CSC1=N2	> 100 µM	> 100 µM	> 100 µM	> 100 µM	> 100 µM	> 100 µM	> 100 µM	> 100 µM	> 100 µM	> 100 µM	> 100 µM
CC(=O)N1C(Nc2cccc3nc(C)ccc23)CCN1c1ccccc1 (configuration not stated)	> 10 µM	> 10 µM	> 10 µM	> 10 µM	> 10 µM	> 10 µM	> 10 µM	> 10 µM	> 10 µM	> 10 µM	> 10 µM
OC(C1CCCCCCCCCC1)C(O)C1CCCCCCCCCC1 (configuration not stated)	> 100 µM	> 100 µM	> 100 µM	> 100 µM	> 100 µM	> 100 µM	> 100 µM	> 100 µM	> 100 µM	> 100 µM	> 100 µM
COC1=CC(=O)c2nc3ccccc3c3ccnc1c23	29.6 µM	> 100 µM	41.5 µM	12.5 µM	21.8 µM	> 31.3 µM	> 45.1 µM	11.8 µM	25.8 µM	> 44.8 µM	20.5 µM
O=S(c1ccc(Cl)cc1)c1ccccc1C1=NCCN1 (configuration not stated)	> 100 µM	> 100 µM	> 100 µM	> 100 µM	> 100 µM	> 100 µM	> 100 µM	> 100 µM	> 100 µM	> 100 µM	> 100 µM
